The term IC50 denotes the concentration needed to halve the response being measured.

Jarid1A, sequence (P29375 1-1090): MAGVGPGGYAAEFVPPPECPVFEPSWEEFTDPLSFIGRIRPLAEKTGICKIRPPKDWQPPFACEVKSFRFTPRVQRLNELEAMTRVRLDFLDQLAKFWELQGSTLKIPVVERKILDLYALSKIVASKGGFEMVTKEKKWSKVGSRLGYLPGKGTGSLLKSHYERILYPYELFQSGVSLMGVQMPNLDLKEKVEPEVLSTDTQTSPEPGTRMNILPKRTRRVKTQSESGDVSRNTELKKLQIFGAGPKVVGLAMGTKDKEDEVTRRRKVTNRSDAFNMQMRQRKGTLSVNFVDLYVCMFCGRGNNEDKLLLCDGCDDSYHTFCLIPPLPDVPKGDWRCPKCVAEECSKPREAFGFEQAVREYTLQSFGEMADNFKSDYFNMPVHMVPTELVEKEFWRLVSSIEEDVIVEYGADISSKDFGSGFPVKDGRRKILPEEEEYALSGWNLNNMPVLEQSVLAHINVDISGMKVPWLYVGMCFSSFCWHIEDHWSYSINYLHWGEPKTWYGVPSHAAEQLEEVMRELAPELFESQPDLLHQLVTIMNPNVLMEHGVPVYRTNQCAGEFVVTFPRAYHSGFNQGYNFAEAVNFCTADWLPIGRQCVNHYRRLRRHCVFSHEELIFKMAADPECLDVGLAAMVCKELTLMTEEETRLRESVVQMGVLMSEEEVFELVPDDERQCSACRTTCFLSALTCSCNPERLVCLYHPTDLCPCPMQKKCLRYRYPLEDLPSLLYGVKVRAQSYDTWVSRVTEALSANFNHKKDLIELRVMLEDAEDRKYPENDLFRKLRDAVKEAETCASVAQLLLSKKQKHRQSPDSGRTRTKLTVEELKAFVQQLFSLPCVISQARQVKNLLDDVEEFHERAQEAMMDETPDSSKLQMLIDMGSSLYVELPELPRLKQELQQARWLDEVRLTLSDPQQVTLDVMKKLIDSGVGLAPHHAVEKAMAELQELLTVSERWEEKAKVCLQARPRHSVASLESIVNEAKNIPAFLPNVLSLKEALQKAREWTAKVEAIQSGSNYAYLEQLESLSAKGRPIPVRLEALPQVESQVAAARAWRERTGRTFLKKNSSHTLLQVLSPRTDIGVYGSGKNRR

For one assay, the target named is Jarid1B (Homo sapiens (Human), UniProt Q9UGL1). As to the kind of experiment: Jarid1B in vitro enzyme inhibition assay (TR-FRET). The format is biochemical.
Jarid1B, sequence (Q9UGL1 2-751): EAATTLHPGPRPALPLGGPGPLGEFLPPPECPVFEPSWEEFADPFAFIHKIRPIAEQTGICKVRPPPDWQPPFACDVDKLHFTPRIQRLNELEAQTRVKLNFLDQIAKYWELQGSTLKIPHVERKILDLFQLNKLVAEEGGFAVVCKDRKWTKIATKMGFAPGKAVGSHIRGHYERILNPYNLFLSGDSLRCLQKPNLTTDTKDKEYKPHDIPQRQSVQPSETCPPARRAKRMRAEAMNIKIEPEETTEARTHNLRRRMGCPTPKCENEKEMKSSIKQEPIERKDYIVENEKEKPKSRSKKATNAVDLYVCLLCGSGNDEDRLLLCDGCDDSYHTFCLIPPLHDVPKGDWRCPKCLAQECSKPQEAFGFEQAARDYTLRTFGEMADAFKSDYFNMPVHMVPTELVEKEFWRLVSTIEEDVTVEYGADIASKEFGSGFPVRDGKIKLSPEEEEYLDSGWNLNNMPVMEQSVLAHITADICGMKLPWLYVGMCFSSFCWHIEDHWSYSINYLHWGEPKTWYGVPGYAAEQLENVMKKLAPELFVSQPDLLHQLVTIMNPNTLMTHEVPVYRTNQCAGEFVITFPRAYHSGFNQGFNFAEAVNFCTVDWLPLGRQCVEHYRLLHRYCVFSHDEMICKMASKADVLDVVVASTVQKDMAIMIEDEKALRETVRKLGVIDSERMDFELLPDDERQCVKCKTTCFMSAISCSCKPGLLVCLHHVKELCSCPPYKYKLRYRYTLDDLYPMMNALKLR
Conditions: not given
The protocol:
(§1) This assay determines the ability of a test compound to inhibit Jarid1A, Jarid1B, JMJD2C, and JMJD2A demethylase activity.
The reaction mixture was incubated at room temperature for 30 minutes, and terminated by the addition of 6 μl of 5 mM EDTA in LANCE detection buffer containing 50 nM Phycolink Streptavidin-allophycocyanin and 2 nM Europium-anti-H3K4me1-2 antibody.
(§2) The ability of the compounds disclosed herein to inhibit demethylase activity was quantified and the respective IC50 value was determined.
`COC(=O)c1ccnc2cc(C(O)c3ccccc3)[nH]c12` (racemic) [Example 19, (±)-methyl 2-[hydroxy(phenyl)methyl]-1H-pyrrolo[3,2-b]pyridine-7-carboxylate] had an IC50 above 10000 nM.

Still in this assay, the particulars now being: TR-FRET, H3K4me3-biotin peptide; read-out: IC50 Jarid1B.
As for `O=C(O)c1ccnc2cc(CO)[nH]c12` [Example 10, 2-(hydroxymethyl)-1H-pyrrolo[3,2-b]pyridine-7-carboxylic acid], the IC50 fell in the range of 100 to 1000 nM.
Consider `O=C(O)c1ccnc2cc(C3CCCC3)[nH]c12` [Example 29, 2-cyclopentyl-1H-pyrrolo[3,2-b]pyridine-7-carboxylic acid], for which the 50% inhibitory concentration (IC50) lay within 100 to 1000 nM.
Still for that read-out and setting: the result for `CC1(C)CCCN1C(=O)c1cc2nccc(C(=O)O)c2[nH]1` [Example 124, 2-[(2,2-dimethylpyrrolidinyl)carbonyl]-pyrrolo[3,2-b]pyridine-7-carboxylic acid] reads below 100 nM; that for `CC(O)(c1ccc(F)cc1)c1cc2nccc(C(=O)O)c2[nH]1` (stereo not drawn) [Example 103, 2-[1-(4-fluorophenyl)-1-hydroxyethyl]-1H-pyrrolo[3,2-b]pyridine-7-carboxylic acid], below 100 nM; that for `O=C(O)c1ccnc2cc(Cc3ccc(F)c(Cl)c3)[nH]c12` [Example 112, 2-(3-chloro-4-fluorobenzyl)-1H-pyrrolo[3,2-6]pyridine-7-carboxylic acid], below 100 nM.
On the same count and under the same terms, the result for `CC(=O)Nc1ccc(OCc2cc3nccc(C(=O)O)c3[nH]2)cc1` [Example 97, 2-{[4-(acetylamino)phenoxy]methyl}-1H-pyrrolo[3,2-b]pyridine-7-carboxylic acid] reads 100 to 1000 nM.
Still for that read-out and setting: the result for `O=C(O)c1ccnc2cc(Cc3ccc(Cl)c(F)c3)[nH]c12` [Example 114, 2-(4-chloro-3-fluorobenzyl)-1H-pyrrolo[3,2-b]pyridine-7-carboxylic acid] reads below 100 nM; that for `COC(=O)c1ccnc2cc(CO)[nH]c12` [Example 9, methyl-2-(hydroxymethyl)-1H-pyrrolo[3,2-b]pyridine-7-carboxylate], above 10000 nM; that for `COC(=O)c1ccnc2cc(C3(O)CCCCC3)[nH]c12` [Example 13, methyl 2-(1-hydroxycyclohexyl)-1H-pyrrolo[3,2-b]pyridine-7-carboxylate], above 10000 nM.
On to `N#Cc1ccc(OCc2cc3nccc(C(=O)O)c3[nH]2)cc1` [Example 98, 2-[(4-cyanophenoxy)methyl]-1H-pyrrolo[3,2-b]pyridine-7-carboxylic acid], for which the 50% inhibitory concentration (IC50) lay within 100 to 1000 nM.
On the same count and under the same terms, the same measure for `O=C(O)c1ccnc2cc(COc3ccc(F)cc3Cl)[nH]c12` [Example 96, 2-[(2-chloro-4-fluorophenoxy)methyl]-1H-pyrrolo[3,2-b]pyridine-7-carboxylic acid]: below 100 nM; for `O=C(O)c1ccnc2cc(-c3cc4ccccc4o3)[nH]c12` [Example 92, 2-(1-benzofuran-2-yl)-1H-pyrrolo[3,2-b]pyridine-7-carboxylic acid]: 100 to 1000 nM; for `O=C(O)c1ccnc2cc(COc3cc(Cl)cc(Cl)c3)[nH]c12` [Example 83, 2-[(3,5-dichlorophenoxy)methyl]-1H-pyrrolo[3,2-b]pyridine-7-carboxylic acid]: below 100 nM.

For another assay, the target named is JMJD2C (Homo sapiens (Human), UniProt Q9H3R0). Put plainly: JMJD2C in vitro enzyme inhibition assay (TR-FRET). The format is biochemical.
JMJD2C, sequence (Q9H3R0 2-372): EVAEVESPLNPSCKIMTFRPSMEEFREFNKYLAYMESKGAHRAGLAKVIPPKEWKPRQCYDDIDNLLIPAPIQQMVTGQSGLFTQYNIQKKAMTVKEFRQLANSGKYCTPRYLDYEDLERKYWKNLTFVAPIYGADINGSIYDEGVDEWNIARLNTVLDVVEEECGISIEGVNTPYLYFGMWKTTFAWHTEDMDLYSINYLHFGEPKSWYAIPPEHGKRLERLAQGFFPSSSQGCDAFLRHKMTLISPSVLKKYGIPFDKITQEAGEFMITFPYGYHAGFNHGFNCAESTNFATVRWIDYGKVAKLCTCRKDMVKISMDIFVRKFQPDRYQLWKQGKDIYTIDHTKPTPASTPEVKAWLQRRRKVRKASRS
Conditions: not given
The protocol:
as §1
Reaction product was determined quantitatively by TR-FRET after the addition of detection reagent Phycolink Streptavidin-allophycocyanin (Prozyme) and Europium-anti-di-methylated histone H3 lysine 9 (H3K9me2) antibody (PerkinElmer) in the presence of 5 mM EDTA in LANCE detection buffer (PerkinElmer) at a final concentration of 50 nM and 1 nM, respectively.
The assay reaction was initiated by the following: 2 μl of the mixture of 900 nM H3K9me3-biotin labeled peptide and 6 μM alpha-ketoglutaric acid with 2 μl of 11-point serial diluted inhibitor in 3% DMSO were added to each well of the plate, followed by the addition of 2 μl of 0.9 nM JMJD2C to initiate the reaction. The reaction mixture was incubated at room temperature for 30 minutes, and terminated by the addition of 6 μl of 5 mM EDTA in LANCE detection buffer containing 100 nM Phycolink Streptavidin-allophycocyanin and 2 nM Europium-anti-H3K9me2 antibody.
as §2
In general terms: Time-resolved FRET reads energy transfer from a long-lived donor to a nearby acceptor.
`COC(=O)c1ccnc2cc(C(O)c3ccccc3)[nH]c12` (racemic) [Example 19, (±)-methyl 2-[hydroxy(phenyl)methyl]-1H-pyrrolo[3,2-b]pyridine-7-carboxylate]: the half-inhibitory concentration (IC50) is above 10000 nM.

The same assay, now with this note: TR-FRET, H3K9me3-biotin peptide; read-out: IC50 JNJD2C.
Turning to `O=C(O)c1ccnc2cc(CO)[nH]c12` [Example 10, 2-(hydroxymethyl)-1H-pyrrolo[3,2-b]pyridine-7-carboxylic acid], the IC50 fell in the range of 100 to 1000 nM.
In the case of `O=C(O)c1ccnc2cc(C3CCCC3)[nH]c12` [Example 29, 2-cyclopentyl-1H-pyrrolo[3,2-b]pyridine-7-carboxylic acid], the IC50 is below 100 nM.
The same measure, in the same setting: the same measure for `CC1(C)CCCN1C(=O)c1cc2nccc(C(=O)O)c2[nH]1` [Example 124, 2-[(2,2-dimethylpyrrolidinyl)carbonyl]-pyrrolo[3,2-b]pyridine-7-carboxylic acid]: 100 to 1000 nM; for `CC(O)(c1ccc(F)cc1)c1cc2nccc(C(=O)O)c2[nH]1` (stereo not drawn) [Example 103, 2-[1-(4-fluorophenyl)-1-hydroxyethyl]-1H-pyrrolo[3,2-b]pyridine-7-carboxylic acid]: below 100 nM.
Still for that read-out and setting: the result for `O=C(O)c1ccnc2cc(Cc3ccc(F)c(Cl)c3)[nH]c12` [Example 112, 2-(3-chloro-4-fluorobenzyl)-1H-pyrrolo[3,2-6]pyridine-7-carboxylic acid] reads below 100 nM; that for `CC(=O)Nc1ccc(OCc2cc3nccc(C(=O)O)c3[nH]2)cc1` [Example 97, 2-{[4-(acetylamino)phenoxy]methyl}-1H-pyrrolo[3,2-b]pyridine-7-carboxylic acid], 100 to 1000 nM.
Still for that read-out and setting: the result for `O=C(O)c1ccnc2cc(Cc3ccc(Cl)c(F)c3)[nH]c12` [Example 114, 2-(4-chloro-3-fluorobenzyl)-1H-pyrrolo[3,2-b]pyridine-7-carboxylic acid] reads below 100 nM.
Take `COC(=O)c1ccnc2cc(CO)[nH]c12` [Example 9, methyl-2-(hydroxymethyl)-1H-pyrrolo[3,2-b]pyridine-7-carboxylate]: the IC50 was above 10000 nM.
On the same count and under the same terms, the same measure for `COC(=O)c1ccnc2cc(C3(O)CCCCC3)[nH]c12` [Example 13, methyl 2-(1-hydroxycyclohexyl)-1H-pyrrolo[3,2-b]pyridine-7-carboxylate]: above 10000 nM.
Still for that read-out and setting: the result for `N#Cc1ccc(OCc2cc3nccc(C(=O)O)c3[nH]2)cc1` [Example 98, 2-[(4-cyanophenoxy)methyl]-1H-pyrrolo[3,2-b]pyridine-7-carboxylic acid] reads 100 to 1000 nM; that for `O=C(O)c1ccnc2cc(COc3ccc(F)cc3Cl)[nH]c12` [Example 96, 2-[(2-chloro-4-fluorophenoxy)methyl]-1H-pyrrolo[3,2-b]pyridine-7-carboxylic acid], 100 to 1000 nM.
As to `O=C(O)c1ccnc2cc(-c3cc4ccccc4o3)[nH]c12` [Example 92, 2-(1-benzofuran-2-yl)-1H-pyrrolo[3,2-b]pyridine-7-carboxylic acid], the 50% inhibitory concentration (IC50) is 100 to 1000 nM.
Take `O=C(O)c1ccnc2cc(COc3cc(Cl)cc(Cl)c3)[nH]c12` [Example 83, 2-[(3,5-dichlorophenoxy)methyl]-1H-pyrrolo[3,2-b]pyridine-7-carboxylic acid]: the half-inhibitory concentration (IC50) was 100 to 1000 nM.

A further assay concerns the target Jarid1A (Homo sapiens (Human), UniProt P29375). Put plainly: Jarid1A in vitro enzyme inhibition assay (TR-FRET). It is filed as biochemical. The settings on record: H3K4me3-biotin peptide. The protocol:
as §1
The enzymatic assay of Jarid1A activity is based upon Time Resolved-Fluorescence Resonance Energy Transfer (TR-FRET) detection.
The assay reaction was initiated by the following: 2 μl of the mixture of 900 nM H3K4me3-biotin labeled peptide and 6 μM alpha-ketoglutaric acid with 2 μl of 11-point serial diluted inhibitor in 3% DMSO was added to each well of plate, followed by the addition of 2 μl of 3 nM Jarid1A to initiate the reaction. The reaction mixture was incubated at room temperature for 30 minutes, and terminated by the addition of 6 μl of 5 mM EDTA in LANCE detection buffer containing 50 nM Phycolink Streptavidin-allophycocyanin and 2 nM Europium-anti-H3K4me1-2 antibody.
as §2
`O=C(O)c1ccnc2cc(CO)[nH]c12` [Example 10, 2-(hydroxymethyl)-1H-pyrrolo[3,2-b]pyridine-7-carboxylic acid]: the half-inhibitory concentration (IC50) was in the range of 100 to 1000 nM.
Still for that read-out and setting: the same measure for `O=C(O)c1ccnc2cc(C3CCCC3)[nH]c12` [Example 29, 2-cyclopentyl-1H-pyrrolo[3,2-b]pyridine-7-carboxylic acid]: 100 to 1000 nM.
Same read-out and setting: the result for `CC1(C)CCCN1C(=O)c1cc2nccc(C(=O)O)c2[nH]1` [Example 124, 2-[(2,2-dimethylpyrrolidinyl)carbonyl]-pyrrolo[3,2-b]pyridine-7-carboxylic acid] reads 100 to 1000 nM; that for `CC(O)(c1ccc(F)cc1)c1cc2nccc(C(=O)O)c2[nH]1` (stereo not drawn) [Example 103, 2-[1-(4-fluorophenyl)-1-hydroxyethyl]-1H-pyrrolo[3,2-b]pyridine-7-carboxylic acid], below 100 nM.
On the same count and under the same terms, the result for `O=C(O)c1ccnc2cc(Cc3ccc(F)c(Cl)c3)[nH]c12` [Example 112, 2-(3-chloro-4-fluorobenzyl)-1H-pyrrolo[3,2-6]pyridine-7-carboxylic acid] reads below 100 nM; that for `CC(=O)Nc1ccc(OCc2cc3nccc(C(=O)O)c3[nH]2)cc1` [Example 97, 2-{[4-(acetylamino)phenoxy]methyl}-1H-pyrrolo[3,2-b]pyridine-7-carboxylic acid], 100 to 1000 nM.
`O=C(O)c1ccnc2cc(Cc3ccc(Cl)c(F)c3)[nH]c12` [Example 114, 2-(4-chloro-3-fluorobenzyl)-1H-pyrrolo[3,2-b]pyridine-7-carboxylic acid] gave a concentration for half-maximal inhibition (IC50) below 100 nM.
The same measure, in the same setting: the same measure for `COC(=O)c1ccnc2cc(C(O)c3ccccc3)[nH]c12` (racemic) [Example 19, (±)-methyl 2-[hydroxy(phenyl)methyl]-1H-pyrrolo[3,2-b]pyridine-7-carboxylate]: 1000 to 10000 nM.
The same measure, in the same setting: the result for `COC(=O)c1ccnc2cc(CO)[nH]c12` [Example 9, methyl-2-(hydroxymethyl)-1H-pyrrolo[3,2-b]pyridine-7-carboxylate] reads above 10000 nM.
Molecule `COC(=O)c1ccnc2cc(C3(O)CCCCC3)[nH]c12` [Example 13, methyl 2-(1-hydroxycyclohexyl)-1H-pyrrolo[3,2-b]pyridine-7-carboxylate] showed an IC50 above 10000 nM.
Still for that read-out and setting: the same measure for `N#Cc1ccc(OCc2cc3nccc(C(=O)O)c3[nH]2)cc1` [Example 98, 2-[(4-cyanophenoxy)methyl]-1H-pyrrolo[3,2-b]pyridine-7-carboxylic acid]: below 100 nM; for `O=C(O)c1ccnc2cc(COc3ccc(F)cc3Cl)[nH]c12` [Example 96, 2-[(2-chloro-4-fluorophenoxy)methyl]-1H-pyrrolo[3,2-b]pyridine-7-carboxylic acid]: below 100 nM; for `O=C(O)c1ccnc2cc(-c3cc4ccccc4o3)[nH]c12` [Example 92, 2-(1-benzofuran-2-yl)-1H-pyrrolo[3,2-b]pyridine-7-carboxylic acid]: 100 to 1000 nM.
Turning to `O=C(O)c1ccnc2cc(COc3cc(Cl)cc(Cl)c3)[nH]c12` [Example 83, 2-[(3,5-dichlorophenoxy)methyl]-1H-pyrrolo[3,2-b]pyridine-7-carboxylic acid], the IC50 is below 100 nM.

The values are drawn from US9738637B2, “Histone demethylase inhibitors” (Quanticel Pharmaceuticals, Inc., priority 2013, dated 2017).
